{
  "source": "patent US20140370086A1",
  "about": "“SUBLINGUAL IMMUNOTHERAPY WITH REDUCED ORAL ITCHINESS” (priority 2013, published 2014)",
  "origin": "cited, not measured here",
  "conditions": "at high doses",
  "data": [
    {"smiles": "O=C(O)c1cc(=O)c2c(OCC(O)COc3cccc4oc(C(=O)O)cc(=O)c34)cccc2o1", "note": "[Cromolyn, Cromolyn sodium (cromoglicic acid)]", "values": [
      {"measurement": "toxicity", "result": "no toxicity at high doses"}
    ]}
  ]
}
